Measurements reported in US7393865B2, “Sleep inducing compounds and methods relating thereto” (Neurocrine Biosciences, Inc., priority 2004, dated 2008).
pKi: −log10 of the molar value.

Target: T1, human H1 receptor (Homo sapiens, UniProt P35367)
T1 construct: expressed in transfected cells; host or cells: CHO cells (crude membranes)
Experiment: Human histamine H1 receptor binding assay
Conditions: competition with 1.5 nM [pyridinyl-5-3H] Pyrilamine, crude membranes of CHO cells transfected with human H1 receptor; Ki from IC50 by Cheng-Prusoff
Description: Compounds of the present invention may be evaluated for binding to the histamine H1 receptor by a standard binding assay. […] Pyrilamine (˜30 Ci/mmol, Amersham TRK608) in the presence of varying concentrations of competing ligand. Non-specific binding is determined in the presence of excess (1 μM) doxepin. Bound and free ligand are separated by rapid vacuum filtration using a Packard 96-well cell harvester onto UniFilter GF/C filter plates (PerkinElmer) that has been pretreated with 1% polyethyleneimine. The filter plates are then washed with 600 μl phosphate buffered saline containing 0.01% (v/v) Triton-X100. Bound radioligand is determined by scintillation counting using a TopCount-NXT (Packard). Binding data is analyzed by nonlinear, least-squares curve fitting algorithms using GraphPad Prism (GraphPad Software, Inc. San Diego, Calif.) or ActivityBase (IDBS, Guildford, Surrey, UK).

T1 sequence (P35367 whole entry): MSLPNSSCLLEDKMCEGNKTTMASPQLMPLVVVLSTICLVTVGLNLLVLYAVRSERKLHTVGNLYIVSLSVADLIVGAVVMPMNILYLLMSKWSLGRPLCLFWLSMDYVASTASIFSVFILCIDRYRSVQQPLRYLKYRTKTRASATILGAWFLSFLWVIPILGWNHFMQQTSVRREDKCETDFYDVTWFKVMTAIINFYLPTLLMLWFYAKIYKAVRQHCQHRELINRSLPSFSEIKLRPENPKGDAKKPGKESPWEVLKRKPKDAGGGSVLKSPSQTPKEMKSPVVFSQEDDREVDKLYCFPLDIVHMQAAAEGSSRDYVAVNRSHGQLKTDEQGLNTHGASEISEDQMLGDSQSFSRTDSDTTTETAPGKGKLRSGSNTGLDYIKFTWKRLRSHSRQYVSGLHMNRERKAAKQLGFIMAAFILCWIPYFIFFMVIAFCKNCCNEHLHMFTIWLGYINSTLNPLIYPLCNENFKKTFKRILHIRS

pKi, ≥ 6.00:
CN(C)CCc1sc2ccccc2c1Cc1cncn1C [Compound 13-11, Dimethyl-{2-[3-(3-methyl-3H-imidazol-4-ylmethyl)-benzo[b]thiophen-2-yl]-ethyl}-amine]
CN(C)CCc1sc2ccccc2c1Cc1cnns1 [Compound 13-12, Dimethyl-[2-(3-[1,2,3]thiadiazol-5-ylmethyl-benzo[b]thiophen-2-yl)-ethyl]-amine]
Cc1cc(Cc2c(CCN(C)C)sc3ccccc23)n(C)n1 [Compound 13-13, {2-[3-(2,5-Dimethyl-2H-pyrazol-3-ylmethyl)-benzo[b]thiophen-2-yl]-ethyl}-dimethyl-amine]
CN(C)CCc1sc2ccccc2c1Cc1nn(C)cc1Cl [Compound 13-14, {2-[3-(4-Chloro-1-methyl-1H-pyrazol-3-ylmethyl)-benzo[b]thiophen-2-yl]-ethyl}-dimethyl-amine]
CN(C)CCc1sc2ccccc2c1Cc1nccn1C [Compound 13-15, Dimethyl-{2-[3-(1-methyl-1H-imidazol-2-ylmethyl)-benzo[b]thiophen-2-yl]-ethyl}-amine]
COc1cccc(C(C)c2c(CCN(C)C)sc3ccccc23)n1 (centres unmarked) [Compound 15-2, (2-{3-[1-(6-Methoxy-pyridin-2-yl)-ethyl]-benzo[b]thiophen-2-yl}-ethyl)-dimethyl-amine]
CC(c1cccc(F)n1)c1c(CCN(C)C)sc2ccccc12 (centres unmarked) [Compound 15-3]
COc1ncccc1C(C)c1c(CCN(C)C)sc2ccccc12 (centres unmarked) [Compound 15-4, Dimethyl-(2-{3-[1-(2-methoxy-pyridin-3-yl)-ethyl]-benzo[b]thiophen-2-yl}-ethyl)-amine]
COc1ncccc1[C@@H](C)c1c(CCN(C)C)sc2ccccc12 [Compound 15-5, Dimethyl-(2-{3-[(R)-1-(2-methoxy-pyridin-3-yl)-ethyl]-benzo[b]thiophen-2-yl}-ethyl)-amine]
COc1ncccc1[C@H](C)c1c(CCN(C)C)sc2ccccc12 [Compound 15-6, Dimethyl-(2-{3-[(S)-1-(2-methoxy-pyridin-3-yl)-ethyl]-benzo[b]thiophen-2-yl}-ethyl)-amine]
CC(c1cccnc1F)c1c(CCN(C)C)sc2ccccc12 (centres unmarked) [Compound 15-7, Dimethyl-(2-{3-[1-(2-fluoro-pyridin-3-yl)-ethyl]-benzo[b]thiophen-2-yl}-ethyl)-amine]
C[C@H](c1cccnc1F)c1c(CCN(C)C)sc2ccccc12 [Compound 15-8, Dimethyl-(2-{3-[(R)-1-(2-fluoro-pyridin-3-yl)-ethyl]-benzo[b]thiophen-2-yl}-ethyl)-amine]
C[C@@H](c1cccnc1F)c1c(CCN(C)C)sc2ccccc12 [Compound 15-9, Dimethyl-(2-{3-[(S)-1-(2-fluoro-pyridin-3-yl)-ethyl]-benzo[b]thiophen-2-yl}-ethyl)-amine]
CC(c1cscn1)c1c(CCN(C)C)sc2ccccc12 (centres unmarked) [Compound 16-2, Dimethyl-{2-[3-(1-thiazol-4-yl-ethyl)-benzo[b]thiophen-2-yl]-ethyl}-amine]
C[C@@H](c1cscn1)c1c(CCN(C)C)sc2ccccc12 [Compound 16-3, Dimethyl-{2-[3-((R)-1-thiazol-4-yl-ethyl)-benzo[b]thiophen-2-yl]-ethyl}-amine]
CC(c1cncs1)c1c(CCN(C)C)sc2ccccc12 (centres unmarked) [Compound 17-2, Dimethyl-{2-[3-(1-thiazol-5-yl-ethyl)-benzo[b]thiophen-2-yl]-ethyl}-amine]
C[C@@H](c1cncs1)c1c(CCN(C)C)sc2ccccc12 [Compound 17-3, Dimethyl-{2-[3-((R)-1-thiazol-5-yl-ethyl)-benzo[b]thiophen-2-yl]-ethyl}-amine]
